Test results: PMC4491662, “Synthesis, Biological Evaluation and Molecular Modeling of Substituted Indeno[1,2-b]indoles as Inhibitors of Human Protein Kinase CK2” (Pharmaceuticals, 2015)
Read-outs that look alike come from different tables or passages of the source.

How the values were obtained:
[1] = Cytotoxicity WST-1 assay, statements over the four cell lines; assay type: cell-based; details: mouse (NIH-3T3, MEF) and human (WI-38, HEK293T), WST-1, cell line not specified, read-out: EC50 (cytotoxic activity, over the cell lines)
From the text: (§1) Four cell lines of various origins were used to evaluate the cytotoxicity of our target compounds 5–7. The selected cell lines were (i) NIH-3T3, a cell line originally established from the primary mouse embryonic fibroblast cells, (ii) MEF, primary mouse embryonic fibroblasts (used at their early passages) prepared as previously described, (iii) WI-38, a human diploid cell line derived from normal embryonic lung tissue, and (iv) HEK293T, a transformed variant of the human embryonic kidney cell line HEK293. After 96 h, cytotoxicity was evaluated using the WST-1 assay. […] Seventeen compounds were evaluated on the cell lines and then compared to TBB used as a standard. […]. All cells were grown in DMEM medium supplemented with 10% fetal calf serum, glutamine (2 mM), penicillin (100 U/mL), and streptomycin (50 μg/mL) at 37 °C under a humidified 5% CO2 atmosphere (Gibco). The assays were performed in sterile 96-wells microtiter plates (Falcon). Cells were plated at 500 (NIH-3T3), 750 (WI-38) or 1000 (MEF; HEK293T) cells/100 µL/well. Drug solutions (10 μL per well) of appropriate concentration (prepared by dilution in the culture medium from 2 mM stock acetonitrile solution) were added 24 h after cell seeding. For ellagic acid and emodin, DMSO was used to prepare the stock solution. After 96 h, the cytotoxicity is evaluated using the Cell Proliferation Reagent WST-1 following the procedure described by the manufacturer (Roche Applied Science). The drugs were assayed at 10, 5, 1, 0.2 and 0.04 µM in triplicate. The vehicle was used as control. The experiments were repeated three times.

HEK293T = test: Cytotoxicity WST-1 assay on HEK293T; assay type: cell-based, human; details: 96 h; for EC50: Homo sapiens, HEK-293T, read-out: EC50 in µM ± SD
From the text: as §1

NIH-3T3 = test: Cytotoxicity WST-1 assay on NIH-3T3; assay type: cell-based, mouse; details: for EC50: Mus musculus, NIH3T3, 96 h, read-out: EC50 in µM ± SD
From the text: as §1

MEF = test: Cytotoxicity WST-1 assay on MEF; assay type: cell-based, mouse; details: 96 h; for EC50: Mus musculus, read-out: EC50 in µM ± SD
From the text: as §1

WI-38 = test: Cytotoxicity WST-1 assay on WI-38; assay type: cell-based, human; details: WI-38, 96 h; for EC50: Homo sapiens, read-out: EC50 in µM ± SD
From the text: as §1

human CK2 holoenzyme [2] = molecular target: T1, human CK2 holoenzyme (Homo sapiens, UniProt P68400); test: biochemical; details: for inhibition at 10 µM: average percent inhibition at 10 µM
human CK2 holoenzyme [3] = molecular target: T1, human CK2 holoenzyme; test: Mode of inhibition and Ki determination, CE based CK2 activity assay at varied ATP; assay type: biochemical; parameters: made in house; host or cells: Escherichia coli BL21(DE3), pT7-7 expression system; details: for IC50: IC50 at varied ATP
Procedure: For this purpose, reaction rates at different inhibitor concentrations were plotted in a Lineweaver-Burk diagram against the varying ATP concentration, resulting in −1/Kmapp as given by the intercepts with the abscissa in both graphs. For determining the Ki values, Kmapp were plotted against the different inhibitor concentrations as shown for 7a in Figure 6.
For this purpose, enzymatic reactions and IC50 determinations were performed as described in Section 3.3.2., but varying compositions of the assay buffer with respect to the ATP concentration were used. […] For this purpose, reaction velocities at different inhibitor concentrations were plotted in a Lineweaver-Burk diagram against the varied ATP concentrations and the corresponding −1/Kmapp were obtained by the intercepts with the abscissa. Finally the Kmapp values as obtained were plotted against the different inhibitor concentrations. By this method, the Ki values with a negative sign were given by the intercepts of the linear slope with the abscissa.

human CK2 holoenzyme [4] = molecular target: T1, human CK2 holoenzyme; details: read-out: IC50 ± SD, assay buffer with 100 µM ATP

T1 sequence (P68400 whole entry): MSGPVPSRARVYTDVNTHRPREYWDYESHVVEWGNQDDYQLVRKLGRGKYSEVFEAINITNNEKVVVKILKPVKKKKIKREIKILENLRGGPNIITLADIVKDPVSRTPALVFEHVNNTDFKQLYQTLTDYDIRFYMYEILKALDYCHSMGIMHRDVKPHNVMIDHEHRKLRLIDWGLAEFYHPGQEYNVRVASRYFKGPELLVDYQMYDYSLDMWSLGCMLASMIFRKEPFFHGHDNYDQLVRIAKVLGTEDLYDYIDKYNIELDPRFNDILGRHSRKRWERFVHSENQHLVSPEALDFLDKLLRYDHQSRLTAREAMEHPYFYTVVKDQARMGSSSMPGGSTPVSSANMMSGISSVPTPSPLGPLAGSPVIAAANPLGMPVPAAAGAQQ
T1 sequence (P67870 whole entry partner): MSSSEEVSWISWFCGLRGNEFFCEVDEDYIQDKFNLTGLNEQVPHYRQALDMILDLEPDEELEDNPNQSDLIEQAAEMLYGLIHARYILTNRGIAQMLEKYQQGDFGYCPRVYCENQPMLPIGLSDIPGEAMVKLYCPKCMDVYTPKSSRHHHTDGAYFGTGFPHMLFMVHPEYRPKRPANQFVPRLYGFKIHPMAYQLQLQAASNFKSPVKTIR

SMILES | EC50 (HEK293T) | EC50 (NIH-3T3) | EC50 (MEF) | EC50 (WI-38) | melting point | inhibition at 10 µM (human CK2 holoenzyme [2]) | other results
CC1CC(=O)c2c3c(n(C(C)C)c2C1)-c1ccccc1C3=O (stereo not drawn) [Compound 5a, 5-Isopropyl-7-methyl-5,6,7,8-tetrahydroindeno[1,2-b]indole-9,10-dione] | > 10 µM | > 10 µM | > 10 µM | > 10 µM | – | – | EC50 at 96 h [1]: > 10 µM
CC(C)C1CC(=O)c2c3c(n(C(C)C)c2C1)-c1ccccc1C3=O (stereo not drawn) [Compound 5b, 5,7-Diisopropyl-5,6,7,8-tetrahydroindeno[1,2-b]indole-9,10-dione] | > 10 µM | > 10 µM | 4.4 ± 0.3 µM | > 10 µM | – | – | EC50 at 96 h [1]: > 10 µM; IC50 (human CK2 holoenzyme [2]): 0.61 ± 0.03 µM
CC(C)n1c2c(c3c1-c1ccccc1C3=O)C(=O)CC(c1ccccc1)C2 (stereo not drawn) [Compound 5c, 5-Isopropyl-7-phenyl-5,6,7,8-tetrahydroindeno[1,2-b]indole-9,10-dione] | > 10 µM | > 10 µM | > 10 µM | > 10 µM | 278 °C | 7% | –
CC(C)n1c2c(c3c1-c1ccccc1C3=O)C(=O)CC(c1ccc(F)cc1)C2 (stereo not drawn) [Compound 5d, 7-(4-Fluorophenyl)-5-isopropyl-5,6,7,8-tetrahydroindeno[1,2-b]indole-9,10-dione] | – | – | – | – | 264 °C | 12% | –
CC(C)n1c2c(c3c1-c1ccccc1C3=O)C(=O)CC(c1ccco1)C2 (stereo not drawn) [Compound 5e, 7-Furan-2-yl-5-isopropyl-5,6,7,8-tetrahydroindeno[1,2-b]indole-9,10-dione] | – | – | – | – | 233.1 °C | 35% | –
CC1CCc2c(c3c(n2C(C)C)-c2ccccc2C3=O)C1=O (stereo not drawn) [Compound 5f, 5-Isopropyl-8-methyl-5,6,7,8-tetrahydroindeno[1,2-b]indole-9,10-dione] | > 10 µM | > 10 µM | > 10 µM | > 10 µM | – | – | –
CC(C)C1CCc2c(c3c(n2C(C)C)-c2ccccc2C3=O)C1=O (stereo not drawn) [Compound 5g, 5,8-Diisopropyl-5,6,7,8-tetrahydroindeno[1,2-b]indole-9,10-dione] | > 10 µM | > 10 µM | > 10 µM | > 10 µM | 215 °C | 21% | –
Cc1cc(O)c2c3c(n(C(C)C)c2c1)-c1ccccc1C3=O [Compound 6a, 9-Hydroxy-5-isopropyl-7-methyl-5H-indeno[1,2-b]indol-10-one] | > 10 µM | > 10 µM | > 10 µM | > 10 µM | – | – | –
CC(C)c1cc(O)c2c3c(n(C(C)C)c2c1)-c1ccccc1C3=O [Compound 6b, 9-Hydroxy-5,7-diisopropyl-5H-indeno[1,2-b]indol-10-one] | > 10 µM | > 10 µM | > 10 µM | > 10 µM | 188.1 °C | – | –
CC(C)n1c2c(c3c(O)cc(-c4ccccc4)cc31)C(=O)c1ccccc1-2 [Compound 6c, 9-Hydroxy-5-isopropyl-7-phenyl-5H-indeno[1,2-b]indol-10-one] | > 10 µM | > 10 µM | > 10 µM | > 10 µM | 198 °C | – | –
CC(C)n1c2c(c3c(O)cc(-c4ccc(F)cc4)cc31)C(=O)c1ccccc1-2 [Compound 6d, 7-(4-Fluorophenyl)-9-hydroxy-5-isopropyl-5H-indeno[1,2-b]indol-10-one] | > 10 µM | > 10 µM | > 10 µM | > 10 µM | 208.1 °C | – | –
CC(C)n1c2c(c3c(O)cc(-c4ccco4)cc31)C(=O)c1ccccc1-2 [Compound 6e, 7-Furan-2-yl-9-hydroxy-5-isopropyl-5H-indeno[1,2-b]indol-10-one] | > 10 µM | > 10 µM | > 10 µM | > 10 µM | 191 °C | – | –
CC(C)c1ccc2c(c1O)c1c(n2C(C)C)-c2ccccc2C1=O [Compound 6g, 9-Hydroxy-5,8-diisopropyl-5H-indeno[1,2-b]indol-10-one] | – | – | – | – | 235 °C | – | –
Cc1cc(=O)c2c3c(=O)c4ccccc4c3n(C(C)C)c2c1=O [Compound 7a, 5-Isopropyl-7-methyl-5H-indeno[1,2-b]indole-6,9,10-trione] | – | – | – | – | 235 °C | 87% | Ki (human CK2 holoenzyme [3]): 0.144 ± 0.022 µM; IC50 (human CK2 holoenzyme [3]; fifth of six ATP concentrations ranging from 6 to 600 µM): 3.32 µM; IC50 (human CK2 holoenzyme [3]; fourth of six ATP concentrations ranging from 6 to 600 µM): 1.27 µM; IC50 (human CK2 holoenzyme [3]; highest of six ATP concentrations, 600 µM): 5.16 µM; IC50 (human CK2 holoenzyme [3]; lowest of six ATP concentrations, 6 µM): 0.13 µM; IC50 (human CK2 holoenzyme [3]; second of six ATP concentrations ranging from 6 to 600 µM): 0.34 µM; IC50 (human CK2 holoenzyme [3]; third of six ATP concentrations ranging from 6 to 600 µM): 0.43 µM; mode of CK2 inhibition (human CK2 holoenzyme [3]; IC50 increases linearly with ATP concentration): ATP competitive; IC50 at 600 µM ATP compared to IC50 at 6 µM ATP (human CK2 holoenzyme [3]; fold higher): 40 fold; EC50 in µM ± SD (HEK293T; HEK293T, WST-1): not soluble; EC50 in µM ± SD (NIH-3T3; NIH-3T3, 96 h, WST-1): not soluble; EC50 in µM ± SD (MEF; WST-1): not soluble; EC50 in µM ± SD (WI-38; WST-1): not soluble; IC50 (human CK2 holoenzyme [2]): 0.43 ± 0.12 µM
CC(C)c1cc(=O)c2c3c(=O)c4ccccc4c3n(C(C)C)c2c1=O [Compound 7b, 5,7-Diisopropyl-5H-indeno[1,2-b]indole-6,9,10-trione] | > 10 µM | > 10 µM | > 10 µM | > 10 µM | 230.4 °C | 60% | IC50 (human CK2 holoenzyme [4]): 4.76 ± 0.29 µM
CC(C)n1c2c(=O)c(-c3ccccc3)cc(=O)c2c2c(=O)c3ccccc3c21 [Compound 7c, 5-Isopropyl-7-phenyl-5H-indeno[1,2-b]indole-6,9,10-trione] | 1.6 ± 0.2 µM | > 10 µM | > 10 µM | > 10 µM | 230.4 °C | 41% | EC50 at 96 h [1]: 0.4 to 8.8 µM
CC(C)n1c2c(=O)c(-c3ccc(F)cc3)cc(=O)c2c2c(=O)c3ccccc3c21 [Compound 7d, 7-(4-Fluorophenyl)-5-isopropyl-5H-indeno[1,2-b]indole-6,9,10-trione] | 4.9 ± 2.4 µM | > 10 µM | 8.5 ± 0.4 µM | > 10 µM | 258.1 °C | 42% | EC50 at 96 h [1]: 0.4 to 8.8 µM
CC(C)n1c2c(=O)c(-c3ccco3)cc(=O)c2c2c(=O)c3ccccc3c21 [Compound 7e, 7-Furan-2-yl-5-isopropyl-5H-indeno[1,2-b]indole-6,9,10-trione] | – | – | – | – | 216.1 °C | 82% | IC50 (human CK2 holoenzyme [2]): 1.65 ± 0.14 µM
CC(C)c1cc(=O)c2c(c1=O)c1c(=O)c3ccccc3c1n2C(C)C [Compound 7g, 5,8-Diisopropyl-5H-indeno[1,2-b]indole-6,9,10-trione] | 0.4 ± 0.02 µM | 1.5 ± 0.8 µM | > 10 µM | 2.5 ± 0.4 µM | 226 °C | 45% | EC50 at 96 h [1]: 0.4 to 8.8 µM
Brc1c(Br)c(Br)c2[nH]nnc2c1Br [TBB, reference compound] | > 10 µM | > 10 µM | > 10 µM | > 10 µM | – | – | –
O=c1oc2c(O)c(O)cc3c(=O)oc4c(O)c(O)cc1c4c23 [ellagic acid, reference compound] | > 10 µM | > 10 µM | > 10 µM | > 10 µM | – | 95% | IC50 (human CK2 holoenzyme [4]): 0.04 ± 0.007 µM
Cc1cc(O)c2c(c1)C(=O)c1cc(O)cc(O)c1C2=O [emodin, reference compound] | > 10 µM | > 10 µM | > 10 µM | > 10 µM | – | – | –
